Assay results from US20030206968A1, “Fungicidal mixtures” (priority 1999, published 2003).

What was measured:
Type in all cases: in vivo
Puccinia recondita = assay: Greenhouse, Puccinia recondita on wheat, 2 days curative; settings: Example 28
Protocol: (§1) The trials are carried out under greenhouse (Examples 1 to 32) or field conditions (Examples 33 to 40) in residual or curative applications. The fungicides are applied in single treatments, or in a combination comprising an azolopyrimidine of formula I and a compound selected from the classes (A), (B) and (C) as defined above. The compounds are applied in form of an aqueous spray mix obtained from a concentrated formulation or the technical material.
(§2) 1. Seed is planted in 6 cm diameter plastic pots and maintained in the greenhouse.
(§3) 2. When the primary leaf is fully expanded in the case of cereals or several leaves are present in the case of dicots, formulated test compounds are sprayed with a three nozzle overhead fungicide sprayer to near run-off. Alternatively, a single nozzle overhead track sprayer is used for application of the compounds to cereals at a rate of 200 l/ha. Plants are then allowed to air-dry.
(§4) 3. Inoculation precedes treatment in the case of curative evaluations and follows treatment in case of residual evaluations. For inoculation of powdery mildew disease, plants are set up on greenhouse benches with bottom watering mats and inoculated by dusting them with conidia from infected plants. Between inoculation and treatment for curative evaluations and between treatment and inoculation for residual evaluations, plants are maintained in the greenhouse with bottom watering.
(§5) For inoculation of non-powdery mildew diseases, an aqueous spore suspension of the pathogen is applied to the plant and the plants are kept 1-2 days in a moist infection chamber before being returned to the greenhouse where they are maintained by bottom watering.
(§6) 4. Disease on the foliage as percent leaf area with disease symptoms/signs is evaluated about 7 days after inoculation. In the case of wheat, the tips and bases of the leaves are excluded from the evaluation. [formula]
(§7) 1. Technical compounds are formulated in a solvent/surfactant system consisting of 5% acetone and 0.05% Tween 20 in deionized water. Compounds are dissolved in acetone prior to addition of the water; the Tween 20 can be added through either the acetone or the water. Dilutions are made using the solvent/surfactant system. Formulated compounds are prepared using deionized water.
(§8) 2. Two kinds of controls are included: Plants treated with the solvent/surfactant solution and inoculated (Solvent Blank). Untreated plants which are inoculated (Inoculated Control).
(§9) Assessments of the diseases took place at the indicated day after the application of the compounds. Per cent infected leaf area infected was evaluated. The efficacy of the compounds/compounds mixtures to control the diseases was calculated by using the formula given above under item 4: […]
(§10) Synergy was calculated using the % disease control values of specific treatments for the two COLBY formula given hereinabove
Fungicidal efficacy of the mixture of (S)-Azolopyrimidine C in admixture with Azoxystrobin or Trifloxystrobin (2 days curative) against Puccinia recondita on wheat. The tank mixes were obtained from technical material of (S)-Azolopyrimidine C and Azoxystrobin or Trifloxystrobin.

Septoria tritici [1] = assay: Field test, Septoria tritici on wheat
Protocol: as §1
For the field study formulated Azolopyrimidine A, B or C and formulated compounds from the classes (A), (B) and (C) were used.
as §9, §10
The compounds are applied according to good agricultural practice in the form of an aqueous spray mix obtained from a concentrated formulation or the technical material at a rate of 400 l/ha. The disease control is evaluated according to the formula given for the greenhouse tests.
Fungicidal efficacy of the mixture of Azolopyrimidine C+metconazole in the field against Septoria tritici on wheat The tank mix was obtained from an EC formulation containing 150 g Azolopyrimidine C per liter and a SL formulation containing 60 g metconazole per liter. The observed and expected efficacies with different rates are given in Table XXXIVa (19 days after application) and Table XXXIVb (25 days after application):
Fungicidal efficacy of the mixture of (S)-Azolopyrimidine C+kresoxim methyl in the field against Septoria tritici on wheat The tank mix was obtained from a SC formulation containing 100 g (S)-Azolopyrimidine C per liter and a WG formulation containing 500 g kresoxim methyl per kg. The observed and expected efficacies with different rates are given in Tables XXXVa (7 days after application), XXXVb (22 days after application), XXXVc (34 days after application), and XXXVd (41 days after application):
Fungicidal efficacy of the mixture of Azolopyrimidine A and different cereal fungicides the field against Septoria tritici on wheat 15 days after application The tank mix was obtained from an SC formulation containing 100 g Azolopyrimidine A per liter and commercially available formulations of metconazole, epoxiconazole or propiconazole, respectively.

Septoria tritici [2] = assay: Greenhouse, Septoria tritici on wheat, 1 day residual; settings: Example 9
Protocol: as §1, §2, §3, §4, §5, §6, §7, §8, §9, §10
Fungicidal efficacy of the mixture of Azolopyrimidine C+metconazole (1 day residual) against Septoria tritici on wheat The tank mix was obtained from a SC formulation containing 100 g Azoplopyrimidine C per liter and an EC containing 100 g metconazole per liter.

Blumeria graminis = assay: Greenhouse, Blumeria graminis on wheat, 1 day residual
Excerpt: as §1, with “The” for “The trials are carried out under greenhouse (Examples 1 to 32) or field conditions (Examples 33 to 40) in residual or curative applications. The”
as §2, §3, §4, §6, §7, §8, §9, §10
Fungicidal efficacy of the mixture of Azolopyrimidine C+quinoxyfen (1 day residual)) against Blumeria graminis on wheat The tank mix was obtained from technical material of Azolopyrimidine C and quinoxyfen.
Fungicidal efficacy of the mixture of Azolopyrimidine C+metalaxyl (1 day residual) against Blumeria graminis on wheat The tank mix was obtained from technical material of Azolopyrimidine C and metalaxyl.
Fungicidal efficacy of the mixture of Azolopyrimidine C+famoxadone (1 day residual) against Blumeria graminis on wheat The tank mix was obtained from technical material of Azolopyrimidine C and famoxadone.

Alternaria solani = assay: Greenhouse, Alternaria solani on tomatoes, 1 day residual; settings: Example 25; rate 4 g/ha
Protocol: as §1, §2, §3, §4, §5, §6, §7, §8, §9, §10
Fungicidal efficacy of the mixture of Azolopyrimidine C and different fungicides (1 day residual) against Alternaria solani on tomatoes The tank mix was obtained from an SC formulation containing 100 g Azolopyrimidine A per liter and WP formulations of dithianon (750 g/kg), captan (500 g/kg), cyprodinil (750 g/kg), mancozeb (800 g/kg), or a SC formulation of chlorothalonil (500 g/l), or a FS formulation of fenpiclonil (400 g/l), spectively.

Compound: 5-chloro-6-(2,4,6-trifluorophenyl)-7-(1,1,1-trifluoroprop-2-ylamino)-[1,2,4]triazolo[1,5-a]pyrimidine [(S)-Azolopyrimidine C]
- Observed Efficacy (Puccinia recondita; dose rate 1.6 ppm): 0%
- Observed Efficacy (Puccinia recondita; dose rate 3.1 ppm): 0%
- Observed Efficacy (Puccinia recondita; dose rate 6.3 ppm): 8%
- Observed Efficacy (Puccinia recondita; dose rate 12.5 ppm): 23%
- Observed Efficacy (Puccinia recondita; dose rate 25 ppm): 54%
- Observed Efficacy (Septoria tritici [1]; (S)-Azolopyrimidine C 75 g/ha alone, 41 days after application, field, wheat): 92
- Observed Efficacy (Septoria tritici [1]; Example 35, 7 days after application, dose rate 25 g/ha): 34%
- Observed Efficacy (Septoria tritici [1]; Example 35, 22 days after application, dose rate 25 g/ha): 74%
- Observed Efficacy (Septoria tritici [1]; Example 35, 22 days after application, dose rate 100 g/ha): 87%
- Observed Efficacy (Septoria tritici [1]; Example 35, 34 days after application, dose rate 50 g/ha): 53%
- Observed Efficacy (Septoria tritici [1]; Example 35, 34 days after application, dose rate 100 g/ha): 70%

Compound: CC(Nc1c(-c2c(F)cc(F)cc2F)c(Cl)nc2ncnn12)C(F)(F)F (centres unmarked) [Azolopyrimidine C, 5-chloro-6-(2,4,6-trifluorophenyl)-7-(1,1,1-trifluoroprop-2-ylamino)-[1,2,4]triazolo[1,5-a]pyrimidine]
- Observed Efficacy (Septoria tritici [2]; dose rate 2 ppm): 0%
- Observed Efficacy (Septoria tritici [2]; dose rate 5 ppm): 0%
- Observed Efficacy (Septoria tritici [2]; dose rate 8 ppm): 0%
- Observed Efficacy (Septoria tritici [2]; dose rate 25 ppm): 68%
- Observed Efficacy (Septoria tritici [2]; dose rate 40 ppm): 91%
- Observed Efficacy (Blumeria graminis; Example 16, dose rate 0.06 ppm): 0%
- Observed Efficacy (Blumeria graminis; Example 16, dose rate 0.25 ppm): 19%
- Observed Efficacy (Blumeria graminis; Example 16, dose rate 1 ppm): 42%
- Observed Efficacy (Blumeria graminis; Example 16, dose rate 4 ppm): 96%
- Observed Efficacy (Blumeria graminis; Example 17, dose rate 0.06 ppm): 0%
- Observed Efficacy (Blumeria graminis; Example 17, dose rate 0.25 ppm): 19%
- Observed Efficacy (Blumeria graminis; Example 17, dose rate 1 ppm): 42%
- Observed Efficacy (Blumeria graminis; Example 17, dose rate 4 ppm): 96%
- Observed Efficacy (Blumeria graminis; Example 18, dose rate 0.06 ppm): 0%
- Observed Efficacy (Blumeria graminis; Example 18, dose rate 0.25 ppm): 19%
- Observed Efficacy (Blumeria graminis; Example 18, dose rate 1 ppm): 42%
- Observed Efficacy (Blumeria graminis; Example 18, dose rate 4 ppm): 96%
- Observed Efficacy (Alternaria solani): 25%
- Observed Efficacy (Septoria tritici [1]; Example 34, 19 days after application, dose rate 25 g/ha): 48%
- Observed Efficacy (Septoria tritici [1]; Example 34, 25 days after application, dose rate 50 g/ha): 61%
- Observed Efficacy (Septoria tritici [1]; Example 34, 25 days after application, dose rate 75 g/ha): 13%
